The data set can be described thus: Comparative stability: HPLC assay of samples stored in open vials. The settings on record: for assay after storage: open vial; for Initial assay: before storage, HPLC assay. Format: physicochemical. Here is the method:
The assay was determined by use of UV-HPLC (e.g., Shimadzu Nexera X2 System) with an autosampler temperature set at 25° C. and a column temperature set at 50° C. Typically 1 μL of sample is injected and separation is obtained by use of a Phenomenex Gemini 5.0 μm 110 Å, 50×2.0 mm column using a flow of 1.5 mL/min. Samples are typically prepared by solubilization in acetonitrile/carbonate buffer pH10 1/1. A gradient method is used with solvent A consisting of Trizma base buffer 50 mM pH 9 (adjusted with HCl) and solvent B consisting of Acetonitrile+5% (v/v) Trizma base buffer 50 mM pH 9 (adjusted with HCl). Following gradient is typically used: […]

Compound `NS(=O)(=O)[N-]c1ncnc(OCCOc2ncc(Br)cn2)c1-c1ccc(Br)cc1.[Na+]` [COMPOUND in crystalline form 1, sodium (5-(4-bromophenyl)-6-(2-((5-bromopyrimidin-2-yl)oxy)ethoxy)pyrimidin-4-yl)(sulfamoyl)amide] yielded an Initial assay of 104.1%. Where the note is “40° C., 7 days, 11% RH”, this compound returned an assay after storage of 104.4%. Besides, the assay after storage (40° C., 7 days, 75% RH) worked out at 104.0%. For the setting “60° C., 7 days, 11% RH”, this compound returned an assay after storage of 104.5%. This compound registered an assay after storage (60° C., 7 days, 75% RH) of 102.6%. This compound also had an assay after storage (80° C., 3 days, 11% RH) of 103.4%. This compound had an assay after storage (80° C., 3 days, 75% RH) of 72.4%. For the same compound, the “chemical stability in comparison to aprocitentan free acid form (in crystalline Form A)” value (under certain experimental conditions of Table 5) is on record as “superior chemical stability”.
`NS(=O)(=O)Nc1ncnc(OCCOc2ncc(Br)cn2)c1-c1ccc(Br)cc1` [{5-(4-bromo-phenyl)-6-[2-(5-bromo-pyrimidin-2-yloxy)-ethoxy]-pyrimidin-4-yl}-sulfamide, reference compound] yielded an Initial assay of 96.9%. Where the note is “40° C., 7 days, 11% RH”, this compound yielded an assay after storage of 97.2%. This compound gave an assay after storage (40° C., 7 days, 75% RH) of 91.8%. The assay after storage (60° C., 7 days, 11% RH) came to 96.7%. Moreover, the assay after storage (60° C., 7 days, 75% RH) is recorded as 93.7%. Further, for the setting “80° C., 3 days, 11% RH”, the assay after storage came to 89.7%. Where the note is “80° C., 3 days, 75% RH”, the assay after storage amounted to 0.3%.

(Values after patent US20250340520A1, “CRYSTALLINE FORMS OF SODIUM (5-(4-BROMOPHENYL)-6-(2-((5-BROMOPYRIMIDIN-2-YL)OXY)ETHOXY)PYRIMIDIN-4-YL)(SULFAMOYL)AMIDE” (IDORSIA PHARMACEUTICALS LTD, priority 2022, published 2025).)
